From article PMC2099433, “The binding site for neohesperidin dihydrochalcone at the human sweet taste receptor” (BMC Structural Biology, 2007)
Numbering of substitutions follows the chain as printed. Where a SMILES comes first, the peptide text is derived from it.

Columns and labels:
[1] = target: T1, hTAS1R2 + hTAS1R3 S729A^5.42 (Homo sapiens, UniProt Q7RTX0+Q8TE23, S729A); test: Calcium response (FLIPR), hTAS1R3 mutant coexpressed with hTAS1R2; format: cell-based; conditions: variant S729A^5.42; for Emax: read-out: maximal signal (% of wt)
T1 construct: expressed in transfected cells; host or cells: HEK293T cells stably expressing G16Gust44
T1 sequence (Q8TE23 20-839): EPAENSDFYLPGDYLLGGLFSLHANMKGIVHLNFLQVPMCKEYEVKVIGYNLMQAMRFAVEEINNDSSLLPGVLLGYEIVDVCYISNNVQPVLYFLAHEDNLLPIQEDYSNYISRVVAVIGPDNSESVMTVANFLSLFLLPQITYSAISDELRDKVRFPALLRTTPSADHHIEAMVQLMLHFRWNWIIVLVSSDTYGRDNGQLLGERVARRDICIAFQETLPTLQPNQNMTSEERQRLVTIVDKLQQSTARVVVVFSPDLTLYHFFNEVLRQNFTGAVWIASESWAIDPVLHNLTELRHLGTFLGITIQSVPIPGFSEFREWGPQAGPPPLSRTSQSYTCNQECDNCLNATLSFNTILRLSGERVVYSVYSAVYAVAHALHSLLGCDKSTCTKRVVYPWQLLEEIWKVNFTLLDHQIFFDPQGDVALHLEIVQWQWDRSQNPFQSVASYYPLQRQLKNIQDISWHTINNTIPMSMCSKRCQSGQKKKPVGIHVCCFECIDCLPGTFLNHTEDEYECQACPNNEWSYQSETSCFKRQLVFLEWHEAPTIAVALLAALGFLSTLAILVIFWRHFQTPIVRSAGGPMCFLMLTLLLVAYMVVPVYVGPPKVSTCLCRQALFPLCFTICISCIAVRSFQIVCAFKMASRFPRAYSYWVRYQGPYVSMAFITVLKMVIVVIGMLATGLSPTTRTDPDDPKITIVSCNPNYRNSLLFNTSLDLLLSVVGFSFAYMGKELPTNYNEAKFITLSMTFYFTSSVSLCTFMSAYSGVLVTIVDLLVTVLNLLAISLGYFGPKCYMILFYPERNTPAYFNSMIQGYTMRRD
T1 sequence (Q7RTX0 21-852 S729A): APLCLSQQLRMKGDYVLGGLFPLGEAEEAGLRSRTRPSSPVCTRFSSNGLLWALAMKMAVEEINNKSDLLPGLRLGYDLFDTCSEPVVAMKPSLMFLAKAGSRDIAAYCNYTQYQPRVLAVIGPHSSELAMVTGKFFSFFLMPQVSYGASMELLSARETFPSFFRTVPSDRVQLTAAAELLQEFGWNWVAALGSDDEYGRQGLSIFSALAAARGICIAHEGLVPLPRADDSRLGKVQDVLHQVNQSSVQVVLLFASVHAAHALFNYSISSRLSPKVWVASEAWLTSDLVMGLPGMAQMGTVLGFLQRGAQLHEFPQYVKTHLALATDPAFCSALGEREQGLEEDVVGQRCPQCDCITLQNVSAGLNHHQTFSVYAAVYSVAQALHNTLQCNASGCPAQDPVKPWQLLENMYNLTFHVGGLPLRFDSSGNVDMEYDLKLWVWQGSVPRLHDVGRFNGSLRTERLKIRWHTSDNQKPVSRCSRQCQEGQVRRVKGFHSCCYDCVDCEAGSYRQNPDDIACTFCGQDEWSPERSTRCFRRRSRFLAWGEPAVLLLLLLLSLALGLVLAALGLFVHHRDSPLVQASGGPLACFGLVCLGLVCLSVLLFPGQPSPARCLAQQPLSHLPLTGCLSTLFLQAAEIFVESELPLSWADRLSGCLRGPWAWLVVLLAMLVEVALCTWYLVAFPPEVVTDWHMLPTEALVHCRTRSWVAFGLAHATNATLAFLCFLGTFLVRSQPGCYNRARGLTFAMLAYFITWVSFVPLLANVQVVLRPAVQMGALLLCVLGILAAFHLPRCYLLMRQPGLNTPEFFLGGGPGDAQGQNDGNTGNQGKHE
How it was run: (§1)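 HEK293T cells stably expressing chimeric G16Gust44 were transiently transfected with C-terminally HSV-tagged hTAS1R2 and mutant hTAS1R3, then loaded 24 h later with Fluo4-AM for 1 h. Calcium mobilization after sweet-tastant application was read by FLIPR, mock-corrected and expressed as ΔF/F.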

[2] = target: T2, hTAS1R2 + hTAS1R3 V621I^2.58 (Homo sapiens, UniProt Q7RTX0+Q8TE23, V621I); test: as above; format: cell-based; conditions: variant V621I^2.58; for EC50: (>) EC50 not calculable because saturation is not reached; for Emax: read-out: maximal signal (% of wt)
T2 construct: expressed in transfected cells; host or cells: HEK293T cells stably expressing G16Gust44
T2 sequence (Q8TE23 20-839): T1 sequence (Q8TE23 20-839)
T2 sequence (Q7RTX0 21-852 V621I): T1 sequence (Q7RTX0 21-852 S729A) with V601I, A709S
How it was run: as §1

| Structure (SMILES) | EC50 [1] | Emax [1] | EC50 [2] | Emax [2] |
| --- | --- | --- | --- | --- |
| COc1ccc(CCC(=O)c2c(O)cc(O[C@@H]3O[C@H](CO)[C@@H](O)[C@H](O)[C@H]3O[C@@H]3O[C@@H](C)[C@H](O)[C@@H](O)[C@H]3O)cc2O)cc1O [NHDC, neohesperidin dihydrochalcone] | 200 ± 100 µM | 80 ± 16% | > 1 mM | 60 ± 14% |
| COC(=O)[C@H](Cc1ccccc1)NC(=O)[C@@H](N)CC(=O)O [aspartame] (HELM PEPTIDE1{D.F.[CO[*:1]]}$$$$V2.0) | 900 ± 400 µM | 72 ± 20% | 1.9 ± 0.4 mM | 61 ± 1% |
